PMC7351026, “Serum Half-Lives for Short- and Long-Chain Perfluoroalkyl Acids after Ceasing Exposure from Drinking Water Contaminated by Firefighting Foam” (Environmental Health Perspectives, 2020)
“And” between values parts separate entries of the source, which are not always exact repeats. Equal values may be shown once. Read-outs that look alike come from different tables or passages of the source. Marks after values point to notes of the source that are not given here.

Tests used:
[1] = Population average serum elimination rate and half-life (linear mixed model, one compartment, first-order); conditions: for half-life: serum, oral; for half-life / Constant elimination rate (95% CI) / Half-life (95% CI) / Average serum half-life: population average; for Reduction of half-life estimation after subtraction of background levels: sensitivity analysis vs model with original serum levels
Description: Serum PFAS concentrations were log-transformed. Time was calculated as the elapsed days between supply of clean bottled water and […] blood sampling. We assumed one compartment, first-order elimination kinetics. In this kinetic model, the body is considered as one homogeneous volume in which mixing is instantaneous and from which PFAS could be absorbed, transferred, and eliminated according to the rate of elimination that is proportional to the concentration of PFAS in the body. Two methods were used to estimate serum elimination rate constant (k) and half-life for each PFAS:
Briefly, in the linear mixed model In Cij=αi+tijβ+Xiβ′+εij, Cij is the serum concentration of PFAS for individual i at sampling round j; αi is the subject-specific intercept (random intercept); tij is the time; β is the average slope; Xi is a vector of fixed covariates for individual i; β′ stands for the fixed effect coefficients; and εij is the random error term. We modified the model by excluding the subject-specific slope (random slope) due to a failure to converge after inclusion, which may be due to the limited number of study subjects. The negative value of the average slope ( −β ) is the population average k, and average half-life is calculated as ln2/k .
In the linear mixed model, we included only age and sex as covariates. We based covariate selection on factors that could conceivably confound the PFAS half-life estimation. Working task, duration of employment, number of glasses of water per day, blood donation, and pregnancy before mitigation of PFAS exposure from drinking water can influence the initial serum levels but would not be expected to influence the PFAS half-life.
A sensitivity analysis was performed using the same linear mixed model but with Cij as the serum levels after subtracting general background levels (using the median levels obtained from the nonexposed reference population). If the serum PFAS levels after subtraction were lower than the half of the background levels, they were replaced with half of the background levels.

[2] = Urine/serum ratio in paired samples; assay type: in vivo, human; conditions: for Personal average urine/serum ratio, median (range): mean of four paired samplings per subject, 17 airport employees
Description: Urinary PFAS concentrations were specific-gravity adjusted. The ratio of urine and serum concentration for each PFAS (urine/serum ratio) at each sampling was calculated based on PFAS concentrations in paired serum and urine samples from 17 employees. Then the personal average urine/serum ratio was calculated using the mean value of repeated samplings for each employee.

[3] = Background serum PFAS levels in reference population from Karlshamn; assay type: in vivo, human; conditions: reference group from Karlshamn without PFAS contamination in drinking water, N=58, sampled 2016
Excerpt: For comparison with Swedish general background PFAS serum levels, we referred to the PFAS levels observed in a reference population from Karlshamn, a municipality in southern Sweden without PFAS contamination in the municipal drinking water. In 2016, 226 individuals were sampled. Fifty-nine individuals were randomly selected for analyzing other short-chain PFAS than the legacy ones, using the same modified method as for the airport employees. Fifty-eight individuals within the same age range as the airport employees (i.e., >22 years of age ) were included in the comparison. For a detailed description of this population see Li et al. ([2018]).

[4] = cited from earlier work; for Estimated half-life (geometric mean): Chinese population, from renal clearance of single paired serum and urine samples, ref Zhang et al. 2013
[5] = human, Half-life (95% CI), model with original serum levels, age and sex as covariates
[6] = human, Half-life (95% CI), model with serum levels after subtraction of background exposure (sensitivity analysis)
[7] = model with original serum levels, age and sex as covariates
[8] = model with serum levels after subtraction of background exposure (sensitivity analysis)
[9] = general Swedish population (Ronneby, 106 Swedes) with high exposure through drinking water, 2 y follow-up from 6 months after clean water, ref Li et al. 2018
[10] = highly exposed general population from Ronneby, Sweden, 108 Swedes, 5 y follow-up, ref Li et al. 2019
[11] = linear mixed model with original serum levels, 17 airport employees after end of drinking-water exposure

Row | Compound | Constant elimination rate (95% CI) [1, 7] | Constant elimination rate (95% CI) [1, 8] | Personal average urine/serum ratio, median (range) [2] | PFAS serum level, median (range) [3] | Half-life (95% CI) [1, 7] | Half-life (95% CI) [1, 8] | also measured
1 | O=S(=O)(O)C(F)(F)C(F)(F)C(F)(F)C(F)(F)C(F)(F)C(F)(F)F [PFHxS, perfluorohexane sulfonic acid] | 0.24 (0.16, 0.33) yearly | 0.24 (0.16, 0.33) yearly | 0.00093 (0.0006–0.0018) | 0.59 ( <LOD –1.2) ng/mL | – | – | half-life [1, 5]: 1040 days; half-life [1, 6]: 1040 days; Average half-life [4, 9]: 5.3 y
2 | O=S(=O)(O)C(F)(F)C(F)(F)C(F)(F)C(F)(F)C(F)(F)F [PFPeS, perfluoropentane sulfonic acid] | 1.1 (0.68, 1.51) yearly | 1.1 (0.68, 1.52) yearly | 0.0089 (0.0057–0.026) | – | 0.63 (0.46, 1.01) year | 0.63 (0.46, 1.01) year | Half-life shorter than L-PFOS ([1]; human, in vivo): 4 times; Urine/serum ratio higher than L-PFOS ([2]; in vivo): 10 times; Average half-life [4, 10]: 1.0 y
3 | O=S(=O)(O)C(F)(F)C(F)(F)C(F)(F)C(F)(F)C(F)(F)C(F)(F)C(F)(F)C(F)(F)F [L-PFOS, linear perfluorooctane sulfonic acid] | 0.24 (0.07, 0.4) yearly | 0.41 (0.11, 0.71) yearly | 0.00092 (0.000035–0.0056) | 3.0 (0.30–9.8) ng/mL | 2.91 (1.71, 9.63) year | 1.69 (0.98, 6.04) year | Reduction of half-life estimation after subtraction of background levels [1]: 42%; Average half-life [4, 9]: 3.4 y
4 | O=S(=O)(O)C(F)(F)C(F)(F)C(F)(F)C(F)(F)F [PFBS, perfluorobutane sulfonic acid] | 5.96 (4.65, 7.27) yearly | – | – | – | 0.12 (0.1, 0.15)^d year | – | Half-life (geometric mean) ([4]; occupationally exposed workers followed up to 180 d, ref Olsen et al. 2009): 25.8 days
5 | Perfluoro-2/6-methylheptanesulfonate [2/6m-PFOS] | 0.66 (0.29, 1.04) yearly | 0.95 (0.39, 1.5) yearly | 0.0051 (0.00059–0.032) | 0.46 ( <LOD –1.4) ng/mL | 1.04 (0.67, 2.42) year | 0.73 (0.46, 1.76) year | –
6 | O=S(=O)(O)C(F)(C(F)(F)F)C(F)(F)C(F)(F)C(F)(F)C(F)(F)C(F)(F)C(F)(F)F (centres unmarked) [1m-PFOS, perfluoro-1-methylheptanesulfonate] | 0.55 (0.09, 1.01) yearly | 0.75 (0.15, 1.36) yearly | – | 0.18 ( <LOD –0.59) ng/mL | 1.27 (0.69, 7.64) year | 0.92 (0.51, 4.77) year | –
7 | O=C(O)C(F)(F)C(F)(F)C(F)(F)C(F)(F)C(F)(F)C(F)(F)C(F)(F)F [PFOA, perfluorooctanoic acid] | 0.39 (0.3, 0.49) yearly | 0.47 (0.35, 0.58) yearly | 0.0032 and 0.0032 (0.00066–0.0067) | – | – | – | half-life [1, 5]: 646 days; half-life [1, 6]: 541 days; Average serum half-life [1, 11]: 1.77 y; Reduction of half-life estimation after subtraction of background levels [1]: 16%; concentration at 2016 calendar year of sampling ([3]; human, serum, read-out: PFAS serum level, median (range)): 1.5 ng/mL; Average half-life ([4]; 26 retired fluorochemical production workers, 5-y follow-up, ref Olsen et al. 2007): 3.8 y; half-life ([4]; 138 Germans, 2-y follow-up, ref Brede et al. 2010): 3.3 y; half-life ([4]; 200 Americans, 1-y follow-up, ref Bartell et al. 2010): 2.3 y; Average half-life [4, 9]: 2.7 y
8 | perfluoro-3/4/5-methylheptanesulfonate [3/4/5m-PFOS] | 0.64 (0.18, 1.1) yearly | 0.83 (0.24, 1.42) yearly | – | 0.79 (0.10–2.2) ng/mL | 1.09 (0.63, 3.96) year | 0.83 (0.49, 2.84) year | –
9 | O=S(=O)(O)C(F)(F)C(F)(F)C(F)(F)C(F)(F)C(F)(F)C(F)(F)C(F)(F)F [PFHpS, perfluoroheptane sulfonic acid] | 0.48 (0.11, 0.84) yearly | 0.51 (0.12, 0.9) yearly | – | – | 1.46 (0.83, 6.25) year | 1.35 (0.77, 5.71) year | Average half-life longer than that of the PFCA with same number of carbon atoms ([1]; PFHpS vs PFHpA, PFOS vs PFOA): ~1.3 y; Average serum half-life [1, 11]: 1.46 y; Reduction of half-life estimation after subtraction of background levels [1]: 8%; Average half-life [4, 10]: 4.7 y
10 | O=C(O)C(F)(F)C(F)(F)C(F)(F)C(F)(F)C(F)(F)C(F)(F)F [PFHpA, perfluoroheptanoic acid] | 4.11 (3.13, 5.09) yearly | – | 0.086 (0.018–0.32) | – | – | – | half-life ([1]; human, Average serum half-life, linear mixed model with original serum levels, 17 airport employees after end of drinking-water exposure): 62 days; half-life [1, 5]: 62.1 days; Estimated half-life (geometric mean) ([4]; older females plus males): 1.0 y; Estimated half-life (geometric mean) ([4]; young females): 0.82 y; First-order apparent elimination half-life (geometric mean) ([4]; whole blood, five ski wax technicians, 7 months follow-up, ref Russell et al. 2015a): 70 days
11 | O=C(O)C(F)(F)C(F)(F)C(F)(F)C(F)(F)C(F)(F)F [PFHxA, perfluorohexanoic acid] | – | – | – | – | 1.63 (NA) year | – | Apparent elimination half-life ([4]; whole blood, seven ski wax technicians, ref Russell et al. 2013): 32 days
